Legend:
Homo sapiens = species on record: Homo sapiens; test: Selectivity, ratio of IC50 for GST-tagged human TCPTP to IC50 for GST-tagged human PTP 1B
[1] = target: Receptor-type tyrosine-protein phosphatase F (Homo sapiens, UniProt P10586); test: Inhibition of GST-tagged human LAR
[2] = target: T1, Tyrosine-protein phosphatase non-receptor type 1 (Homo sapiens, UniProt P18031); test: Inhibition of GST-tagged human PTP 1B
T1 sequence (P18031 whole entry): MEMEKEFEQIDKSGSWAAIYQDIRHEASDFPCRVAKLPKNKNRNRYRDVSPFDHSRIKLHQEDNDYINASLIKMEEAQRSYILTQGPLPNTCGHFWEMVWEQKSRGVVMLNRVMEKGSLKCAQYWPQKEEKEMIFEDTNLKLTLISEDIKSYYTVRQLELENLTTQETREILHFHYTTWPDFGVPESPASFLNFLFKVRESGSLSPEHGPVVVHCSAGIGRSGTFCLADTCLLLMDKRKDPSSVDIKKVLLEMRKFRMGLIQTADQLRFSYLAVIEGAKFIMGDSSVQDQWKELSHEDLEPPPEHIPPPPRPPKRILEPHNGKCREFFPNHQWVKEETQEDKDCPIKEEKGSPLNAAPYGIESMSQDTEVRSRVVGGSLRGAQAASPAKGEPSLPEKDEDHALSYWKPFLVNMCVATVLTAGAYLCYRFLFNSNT

[3] = target: Tyrosine-protein phosphatase non-receptor type 6 (Homo sapiens, UniProt P29350); test: Inhibition of GST-tagged human SHP1
[4] = target: T2, Tyrosine-protein phosphatase non-receptor type 2 (Homo sapiens, UniProt P17706); test: Inhibition of GST-tagged human TCPTP
T2 sequence (P17706 whole entry): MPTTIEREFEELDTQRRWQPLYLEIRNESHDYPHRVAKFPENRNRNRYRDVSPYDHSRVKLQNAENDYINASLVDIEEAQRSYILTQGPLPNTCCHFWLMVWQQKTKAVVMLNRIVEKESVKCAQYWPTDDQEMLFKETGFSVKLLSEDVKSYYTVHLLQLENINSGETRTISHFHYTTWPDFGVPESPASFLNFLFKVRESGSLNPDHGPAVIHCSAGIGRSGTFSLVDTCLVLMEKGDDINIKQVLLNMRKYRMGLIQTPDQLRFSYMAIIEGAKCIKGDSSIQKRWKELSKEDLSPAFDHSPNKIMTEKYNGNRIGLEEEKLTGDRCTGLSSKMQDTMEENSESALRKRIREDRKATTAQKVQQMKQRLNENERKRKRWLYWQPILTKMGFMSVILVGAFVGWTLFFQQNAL

[5] = target: T3, Tyrosine-protein phosphatase non-receptor type 11 (Homo sapiens, UniProt Q06124); test: Inhibition of GST-tagged human SHP2
T3 sequence (Q06124 whole entry): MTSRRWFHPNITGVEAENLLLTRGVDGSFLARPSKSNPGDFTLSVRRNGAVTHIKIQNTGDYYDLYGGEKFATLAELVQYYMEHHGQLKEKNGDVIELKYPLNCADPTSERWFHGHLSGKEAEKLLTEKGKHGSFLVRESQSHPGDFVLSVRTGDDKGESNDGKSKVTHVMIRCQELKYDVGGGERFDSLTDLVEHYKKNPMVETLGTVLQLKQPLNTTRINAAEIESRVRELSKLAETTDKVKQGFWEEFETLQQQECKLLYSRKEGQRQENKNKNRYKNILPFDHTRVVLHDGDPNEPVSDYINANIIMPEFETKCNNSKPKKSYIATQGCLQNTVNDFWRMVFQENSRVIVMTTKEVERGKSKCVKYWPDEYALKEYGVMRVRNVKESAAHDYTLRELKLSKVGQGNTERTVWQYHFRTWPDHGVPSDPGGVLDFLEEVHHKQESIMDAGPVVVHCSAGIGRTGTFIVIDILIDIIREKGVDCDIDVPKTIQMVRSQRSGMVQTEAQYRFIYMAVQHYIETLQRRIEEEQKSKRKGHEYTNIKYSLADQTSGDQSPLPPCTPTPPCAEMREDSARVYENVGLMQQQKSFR

[6] = Inhibition of glycogen phosphorylase

Sequence of Tyrosine-protein phosphatase non-receptor type 6 (P29350 whole entry): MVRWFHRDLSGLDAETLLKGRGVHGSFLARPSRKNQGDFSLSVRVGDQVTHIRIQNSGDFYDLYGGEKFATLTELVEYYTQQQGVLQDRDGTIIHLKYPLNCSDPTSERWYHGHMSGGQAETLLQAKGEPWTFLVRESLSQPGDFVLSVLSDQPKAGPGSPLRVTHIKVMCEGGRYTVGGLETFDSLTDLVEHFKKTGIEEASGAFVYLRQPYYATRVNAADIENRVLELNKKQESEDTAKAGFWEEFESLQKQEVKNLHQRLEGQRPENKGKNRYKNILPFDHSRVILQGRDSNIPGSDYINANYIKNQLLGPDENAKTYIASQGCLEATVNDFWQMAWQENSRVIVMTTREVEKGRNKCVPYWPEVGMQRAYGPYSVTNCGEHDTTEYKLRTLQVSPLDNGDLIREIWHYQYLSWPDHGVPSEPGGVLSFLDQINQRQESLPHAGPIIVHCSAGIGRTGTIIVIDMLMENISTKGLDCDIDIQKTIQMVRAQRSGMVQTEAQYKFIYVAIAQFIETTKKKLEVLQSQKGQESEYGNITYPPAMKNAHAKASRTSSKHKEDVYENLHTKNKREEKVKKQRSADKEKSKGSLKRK
Sequence of Receptor-type tyrosine-protein phosphatase F (P10586 whole entry): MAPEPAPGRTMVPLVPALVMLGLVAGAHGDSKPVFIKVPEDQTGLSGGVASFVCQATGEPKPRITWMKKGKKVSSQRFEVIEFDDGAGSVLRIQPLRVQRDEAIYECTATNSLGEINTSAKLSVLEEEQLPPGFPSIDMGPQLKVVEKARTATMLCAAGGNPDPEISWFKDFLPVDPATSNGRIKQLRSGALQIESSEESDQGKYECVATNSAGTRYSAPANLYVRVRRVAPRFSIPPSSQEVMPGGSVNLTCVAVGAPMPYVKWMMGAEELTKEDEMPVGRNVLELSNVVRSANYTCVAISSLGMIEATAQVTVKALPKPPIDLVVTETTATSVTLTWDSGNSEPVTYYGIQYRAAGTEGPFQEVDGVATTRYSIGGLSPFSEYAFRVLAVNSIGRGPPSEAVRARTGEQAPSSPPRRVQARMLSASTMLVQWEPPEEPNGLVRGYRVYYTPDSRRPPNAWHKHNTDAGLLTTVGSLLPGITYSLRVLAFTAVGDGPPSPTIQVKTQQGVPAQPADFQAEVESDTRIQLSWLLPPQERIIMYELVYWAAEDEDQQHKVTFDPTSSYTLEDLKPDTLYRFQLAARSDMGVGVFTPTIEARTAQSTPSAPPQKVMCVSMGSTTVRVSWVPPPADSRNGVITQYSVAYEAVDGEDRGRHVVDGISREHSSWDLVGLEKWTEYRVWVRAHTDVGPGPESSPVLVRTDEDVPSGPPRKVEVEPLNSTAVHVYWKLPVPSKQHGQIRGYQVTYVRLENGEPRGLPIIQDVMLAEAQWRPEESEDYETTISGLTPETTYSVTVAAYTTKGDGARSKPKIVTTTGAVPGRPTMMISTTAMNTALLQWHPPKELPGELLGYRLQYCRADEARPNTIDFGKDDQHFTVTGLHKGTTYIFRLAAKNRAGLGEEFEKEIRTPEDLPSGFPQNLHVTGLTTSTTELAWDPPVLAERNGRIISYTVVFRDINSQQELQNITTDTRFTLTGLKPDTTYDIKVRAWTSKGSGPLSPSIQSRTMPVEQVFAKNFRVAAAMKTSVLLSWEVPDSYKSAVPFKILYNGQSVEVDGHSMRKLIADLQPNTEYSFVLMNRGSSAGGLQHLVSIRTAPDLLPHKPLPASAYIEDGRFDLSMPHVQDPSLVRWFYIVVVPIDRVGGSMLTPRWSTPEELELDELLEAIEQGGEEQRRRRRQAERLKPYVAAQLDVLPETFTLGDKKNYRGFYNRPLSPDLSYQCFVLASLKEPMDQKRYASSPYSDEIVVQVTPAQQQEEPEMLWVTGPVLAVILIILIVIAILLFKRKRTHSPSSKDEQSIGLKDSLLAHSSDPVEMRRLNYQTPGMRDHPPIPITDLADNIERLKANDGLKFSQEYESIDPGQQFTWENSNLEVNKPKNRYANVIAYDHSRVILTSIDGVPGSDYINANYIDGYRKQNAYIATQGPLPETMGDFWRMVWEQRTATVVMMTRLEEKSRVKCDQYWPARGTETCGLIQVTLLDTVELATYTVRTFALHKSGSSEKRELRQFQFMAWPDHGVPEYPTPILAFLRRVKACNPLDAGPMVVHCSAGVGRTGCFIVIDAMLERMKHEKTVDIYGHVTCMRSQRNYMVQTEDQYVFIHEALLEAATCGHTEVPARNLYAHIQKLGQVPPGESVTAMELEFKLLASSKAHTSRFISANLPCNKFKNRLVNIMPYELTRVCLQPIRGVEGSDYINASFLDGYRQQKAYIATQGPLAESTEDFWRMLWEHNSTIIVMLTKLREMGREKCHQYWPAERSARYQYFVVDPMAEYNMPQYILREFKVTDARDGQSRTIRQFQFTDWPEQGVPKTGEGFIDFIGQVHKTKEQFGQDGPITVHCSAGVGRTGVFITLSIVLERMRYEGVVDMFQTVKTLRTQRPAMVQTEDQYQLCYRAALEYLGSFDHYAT

SMILES	Ratio IC50 (Homo sapiens)	IC50 [1] [µM]	IC50 [2] [µM]	IC50 [3] [µM]	IC50 [4] [µM]	IC50 [5] [µM]	IC50 [6] [µM]
O=C(O)C(=O)c1ccc(OCc2ccc(COc3ccc(C(=O)C(=O)O)cc3)cc2)cc1	1.6		3.89		6.24		
CC1(C)CC[C@]2(C(=O)O)CC[C@]3(C)C(=CC[C@@H]4[C@@]5(C)C[C@H](O)[C@H](O)C(C)(C)[C@@H]5CC[C@]43C)[C@@H]2C1 [AUGUSTIC ACID]			4.93				
CC1(C)CC[C@]2(C(=O)O)CC[C@]3(C)C(=CC[C@@H]4[C@@]5(C)Cc6nc7ccccc7nc6C(C)(C)[C@@H]5CC[C@]43C)[C@@H]2C1	4.1	> 40	1.43	> 40	5.88	> 40	
CC1(C)CC[C@]2(C(=O)O)CC[C@]3(C)C(=CC[C@@H]4[C@@]5(C)Cc6c([nH]c7ccccc67)C(C)(C)[C@@H]5CC[C@]43C)[C@@H]2C1	2.6		0.61		1.6		
CC1(C)CC[C@]2(C(=O)O)CC[C@]3(C)C(=CC[C@@H]4[C@@]5(C)C[C@@H](O)[C@@H](O)C(C)(C)[C@@H]5CC[C@]43C)[C@@H]2C1			14.3				
CC1(C)CC[C@]2(C(=O)O)CC[C@]3(C)C(=CC[C@@H]4[C@@]5(C)C[C@@H](O)[C@H](O)C(C)(C)[C@@H]5CC[C@]43C)[C@@H]2C1 [MASLINIC ACID]	3.3	> 40	5.93	> 40	19.5	> 40	28
CNc1ncc2c(n1)C(C)(C)[C@@H]1CC[C@]3(C)[C@H](CC=C4[C@@H]5CC(C)(C)CC[C@]5(C(=O)O)CC[C@]43C)[C@@]1(C)C2			5.44				
CC1(C)CC[C@]2(C(=O)O)CC[C@]3(C)C(=CC[C@@H]4[C@@]5(C)Cc6nccnc6C(C)(C)[C@@H]5CC[C@]43C)[C@@H]2C1	4.6	> 40	1.79	> 40	8.31	> 40	
CC1(C)CC[C@]2(C(=O)O)CC[C@]3(C)C(=CC[C@@H]4[C@@]5(C)Cc6sc(N)nc6C(C)(C)[C@@H]5CC[C@]43C)[C@@H]2C1	3.4	> 40	1.92	> 40	6.44	> 40	

Further lines, results first:

Ratio IC50 (Homo sapiens)	IC50 [1] [µM]	IC50 [2] [µM]	IC50 [3] [µM]	IC50 [4] [µM]	IC50 [5] [µM]	IC50 [6] [µM]	SMILES
3	> 40	2.73	> 40	8.19	> 40		CC1(C)CC[C@]2(C(=O)O)CC[C@]3(C)C(=CC[C@@H]4[C@@]5(C)Cc6cncnc6C(C)(C)[C@@H]5CC[C@]43C)[C@@H]2C1
3.6	> 40	1.65	> 40	5.99	> 40		CC1(C)CC[C@]2(C(=O)O)CC[C@]3(C)C(=CC[C@@H]4[C@@]5(C)Cc6cn[nH]c6C(C)(C)[C@@H]5CC[C@]43C)[C@@H]2C1
3.3		1.48		4.93			CC(=O)n1ncc2c1C(C)(C)[C@@H]1CC[C@]3(C)[C@H](CC=C4[C@@H]5CC(C)(C)CC[C@]5(C(=O)O)CC[C@]43C)[C@@]1(C)C2
4.5		0.81		3.62			CC1(C)CC[C@]2(C(=O)O)CC[C@]3(C)C(=CC[C@@H]4[C@@]5(C)Cc6cnn(C(=O)c7ccncc7)c6C(C)(C)[C@@H]5CC[C@]43C)[C@@H]2C1
3.2		1.75		5.56			CCCCCC(=O)n1ncc2c1C(C)(C)[C@@H]1CC[C@]3(C)[C@H](CC=C4[C@@H]5CC(C)(C)CC[C@]5(C(=O)O)CC[C@]43C)[C@@]1(C)C2
3.3	> 40	2.6	> 40	8.44	> 40		CC1(C)CC[C@]2(C(=O)O)CC[C@]3(C)C(=CC[C@@H]4[C@@]5(C)Cc6cnoc6C(C)(C)[C@@H]5CC[C@]43C)[C@@H]2C1
2.7	> 40	1.39	> 40	3.8	> 40		CC1(C)CC[C@]2(C(=O)O)CC[C@]3(C)C(=CC[C@@H]4[C@@]5(C)Cc6cnn(-c7ccccc7)c6C(C)(C)[C@@H]5CC[C@]43C)[C@@H]2C1
6.9		0.64		4.39			CC1(C)CC[C@]2(C(=O)O)CC[C@]3(C)C(=CC[C@@H]4[C@@]5(C)Cc6cnn(C(=O)c7cccnc7)c6C(C)(C)[C@@H]5CC[C@]43C)[C@@H]2C1
3.1		1.78		5.51			CC1(C)CC[C@]2(C(=O)O)CC[C@]3(C)C(=CC[C@@H]4[C@@]5(C)Cc6cnc(N)nc6C(C)(C)[C@@H]5CC[C@]43C)[C@@H]2C1
2.5		2.61		6.5			Cc1ncc2c(n1)C(C)(C)[C@@H]1CC[C@]3(C)[C@H](CC=C4[C@@H]5CC(C)(C)CC[C@]5(C(=O)O)CC[C@]43C)[C@@]1(C)C2

— ChEMBL document CHEMBL1154642, “Synthesis and biological evaluation of heterocyclic ring-substituted maslinic acid derivatives as novel inhibitors of protein tyrosine phosphatase 1B” (Bioorg Med Chem Lett, 2009)
